# From article PMC10821118, “Gallium-68-Labeled KISS1-54 Peptide for Mapping KISS1 Receptor via PET: Initial Evaluation in Human Tumor Cell Lines and in Tumor-Bearing Mice” (Pharmaceuticals, 2023)
# Ends that are not written are not given here.
# How the values were obtained:
# KISS1R in HCT116 cells = test: KISS1R expression by immunofluorescence after Decitabine pre-incubation; assay type: cell-based, human; conditions: HCT116 pre-incubated 72 h with 5 µM Decitabine versus untreated
# Protocol: Cells were seeded in 24-well plates on microscope cover glasses (VWR, Ismaning, Germany). After fixation/permeabilization, cells were incubated overnight with anti-KISS1R antibody (abcam, Berlin, Germany) or without primary antibody (negative control) and then stained with Alexa-Fluor®-488 conjugated secondary antibody (abcam, Berlin, Germany). The nucleus was counterstained with 4′,6-Diamidin-2-phenylindol (DAPI) (Sigma-Aldrich, Deisenhofen, Germany). Fluorescence images were taken on an Axio Scope.A1 fluorescence microscope equipped with a camera and the ZEN2 (blue edition)-Software, version 2.0.0.0 (Zeiss, Jena, Germany). Fluorescence canals were merged using the software FIJI (Image J, version 1.53t).
# Cells were seeded in 24-well plates, and 1 h before [^68Ga]KISS1-54 uptake, the cell culture medium was replaced by PBS/5% BSA. Cells were incubated at 37 °C with [^68Ga]KISS1-54 for 5–90 min or co-incubated for 60 min with [^68Ga]KISS1-54 and KISS1-54 (Sigma Aldrich, Deisenhofen, Germany). After incubation, cells were washed three times with ice-cold PBS/5% BSA and harvested. Radioactivity was measured with a gamma-counter (Wizard 2480, Perkin-Elmer, Rodgau, Germany), and cells were subsequently counted with Countess 3 (Thermo Fisher Scientific, Waltham, MA, USA). […]
# LNCap tumor xenograft = assay type: in vivo, CD1 nu/nu mice
# Protocol: (§1) The animal studies were conducted according to the principles and procedures outlined in the Guide for the Care and Use of Laboratory Animals and were in line with the Animal Welfare Act and the directive 2010/63/EU. All mice (CD1-Foxn1nu) were purchased from Charles River (Sulzfeld, Germany) and held in the animal facility of the University Hospital of Würzburg. After their arrival, they had at least a week to get used to their new environment in the animal facility.
# (§2) Then, 5 × 10^6 MDA-MB-231-cells in PBS and 5 × 10^6 LNCap cells in Matrigel Matrix® without phenol-red (Corning Life Sciences B.V., Amsterdam, The Netherlands), respectively, were inoculated subcutaneously into the front flank of eight-week-old mice. After implantation, the animals were examined and monitored daily for tumor size and well-being.
# (§3) After the tumor reached a size of ≥0.5 cm in diameter, micro-PET scans were started.
# (§4) For tracer injection, and during the micro-PET scans, mice were kept under 1.5% isoflurane anesthesia in 100% oxygen. Body temperature was maintained at a physiological level by using heating pads throughout the whole examination period.
# (§5) Then, 3.0 ± 0.9 MBq of freshly prepared [^68Ga]KISS1-54 was injected intravenously (i.v.) into the tail vein. The first animals were scanned over 80 min directly after tracer injection to find out the optimal time point for PET acquisition. […] Therefore, data acquisition for all further mice started 60 min p.i. over 20 min.
# (§6) Each acquired set of data was sorted with Fourier rebinning (FORE) to a 2D dataset of sinograms, which were reconstructed with the OSEM2D reconstruction algorithm. The software AMIDE Medical Image Data Examiner (Version 1.0.4) was used to quantify the radioactivity uptake in various regions of interest (ROIs). For the semi-quantitative analysis of the PET images, spherical ROIs were defined and used. For quantification, tumor-to-muscle, tumor-to-liver, and tumor-to-lung ratios (maximal tumor uptake/mean organ uptake) were calculated.
# [1] = system: MDA-MB-231 tumor xenograft; assay type: in vivo, CD1 nu/nu mice
# Protocol: as §1, §2, §3, §4, §5, §6
# [2] = Stability in injection solution by radio-HPLC; assay type: physicochemical; conditions: 3 h after preparation (EOS), diluted in PBS, room temperature, C18
# Protocol: The radiochemical purity of [^68Ga]KISS1-54 was determined via high-performance liquid chromatography (HPLC). A linear gradient started from 100% H2O (0.1% TFA) to 100% acetonitrile (0.1% TFA) over 10 min, with a flow rate of 0.7 mL/min, using a Nucleosil column (100-5 C18 125 × 4.6 mm) (CS-Chromatographie, Langerwehe, Germany) and HPLC system (Knauer, Berlin, Germany). For the determination of the in vitro stability, the [^68Ga]KISS1-54 solution was diluted in phosphate-buffered saline (PBS) and stored at room temperature, and the HPLC runs were repeated 1 h and 3 h after the end of synthesis.
# [3] = assay type: in vitro ADME, human
# Protocol: For the determination of the […] stability, [^68Ga]KISS1-54 was incubated in fresh human serum at 37 °C for 3 h. After 0.5 h, 1 h, 2 h, and 3 h, adequate samples were taken, purified, and analyzed via HPLC under the conditions described above. […] The measured radioactivity (counts per minute) for each fraction was plotted versus time in a graph.
# LNCap cells = test: In vitro cell uptake, LNCap; assay type: cell-based, human; conditions: 60 min co-incubation with nonradioactive KISS1-54, 1,000-fold, p = 0.047
# Protocol: (§7) Cells were seeded in 24-well plates, and 1 h before [^68Ga]KISS1-54 uptake, the cell culture medium was replaced by PBS/5% BSA. Cells were incubated at 37 °C with [^68Ga]KISS1-54 for 5–90 min or co-incubated for 60 min with [^68Ga]KISS1-54 and KISS1-54 (Sigma Aldrich, Deisenhofen, Germany). After incubation, cells were washed three times with ice-cold PBS/5% BSA and harvested. Radioactivity was measured with a gamma-counter (Wizard 2480, Perkin-Elmer, Rodgau, Germany), and cells were subsequently counted with Countess 3 (Thermo Fisher Scientific, Waltham, MA, USA). In the case of treatment with 5-Aza-2′-Deoxycytidine (Decitabine (DC)), cells were preincubated for 72 h in cell culture medium containing 5 µM Decitabine (Merck Millipore, Darmstadt, Germany). For data analysis, the determined accumulation of [^68Ga]KISS1-54 in vitro was standardized as “uptake/100,000 cells” for a better comparison. For example, the cell number differed between pretreatment with and without Decitabine, which is due to the treatment itself, making standardization necessary.
# HepG2 cells = test: In vitro cell uptake, HepG2; assay type: cell-based, human; conditions: 60 min co-incubation with nonradioactive KISS1-54, 1,000-fold, p = 0.02
# Protocol: as §7
# MCF-7 cells = test: In vitro cell uptake, MCF-7; assay type: cell-based, human; conditions: 60 min co-incubation with nonradioactive KISS1-54, 1,000-fold, p = 0.004
# Protocol: as §7
# HCT116 cells = test: In vitro cell uptake, HCT116; assay type: cell-based, human
# Protocol: as §7
# HeLa cells = test: In vitro cell uptake, HeLa; assay type: cell-based, human; conditions: 60 min co-incubation with nonradioactive KISS1-54, 1,000-fold, p < 0.001
# Protocol: as §7
# SK-BR-3 cells = test: In vitro cell uptake, SK-BR-3; assay type: cell-based, human; conditions: 60 min co-incubation with nonradioactive KISS1-54, 1,000-fold, p = 0.02
# Protocol: as §7
# MDA-MB-231 cells = test: In vitro cell uptake, MDA-MB-231; assay type: cell-based, human; conditions: 60 min co-incubation with nonradioactive KISS1-54, 1,000-fold, not significant, p = 0.08
# Protocol: as §7
# in vivo = test: in vivo; design: species or system CD1 nu/nu mice; conditions: mouse, iv; for tissue uptake at 1 h: CD1-Foxn1nu (CD1 nu/nu), total radioactivity
# Protocol: as §1, §2, §3, §4, §5, §6
# [4] = target: KISS1 receptor (KISS1R or GPR54); conditions: affinity for KISS1R; ref [1],[2]; cited from earlier work
# Protocol: Kisspeptins (KPs) summarize the family of KISS1 peptides, which bind at the KISS1 receptor (KISS1R or GPR54) with high affinity. Among the KPs, KISS1-54 is the best characterized representative (Ki 1.45 ± 0.1 nM for KISS1-54). The Kiss1 gene was first identified as a metastasis suppressor gene in melanoma, which suppresses metastasis without affecting the formation of primary tumor [3]. Since then, Kisspeptin was also identified in pancreatic, lung, breast, ovarian, gastric, colon, bladder, esophageal, and small intestine cancer.
compound,measurement,setting,value
"Nc1ncn([C@H]2C[C@H](O)[C@@H](CO)O2)c(=O)n1 [Decitabine, 5-Aza-2′-Deoxycytidine]",KISS1R level by immunofluorescence,KISS1R in HCT116 cells,increase in the KISS1R level
"O=C[C@H]([18F])[C@@H](O)[C@H](O)[C@H](O)CO [[^18F]FDG, 2-[^18F]fluoro-2-deoxyglucose, reference compound]",tumor uptake in control PET (tumor vitality),"LNCap tumor xenograft; LNCap tumor, scan the day before [^68Ga]KISS1-54",clear FDG uptake
same,tumor uptake in control PET (tumor vitality),"[1]; MDA-MB-231 tumor, scan the day before [^68Ga]KISS1-54",clear FDG uptake
"CC[C@H](C)[C@H](NC(=O)[C@H](CCC(N)=O)NC(=O)[C@H](CCCNC(=N)N)NC(=O)[C@H](CO)NC(=O)[C@H](Cc1c[nH]cn1)NC(=O)[C@@H]1CCCN1C(=O)[C@H](C)NC(=O)[C@H](CO)NC(=O)[C@H](CC(C)C)NC(=O)CNC(=O)[C@@H]1CCCN1C(=O)[C@H](CCC(N)=O)NC(=O)[C@H](CCC(N)=O)NC(=O)[C@H](CCCNC(=N)N)NC(=O)[C@H](CO)NC(=O)CNC(=O)[C@H](CO)NC(=O)[C@H](CO)NC(=O)[C@H](CCC(=O)O)NC(=O)[C@@H]1CCCN1C(=O)[C@@H]1CCCN1C(=O)[C@@H]1CCCN1C(=O)[C@H](CO)NC(=O)[C@H](CC(C)C)NC(=O)[C@H](CO)NC(=O)[C@@H](NC(=O)CNC(=O)CCC(C(=O)O)N1CCN(CC(=O)O)CCN(CC(=O)O)CC1)[C@@H](C)O)C(=O)N1CCC[C@H]1C(=O)N[C@@H](C)C(=O)N1CCC[C@H]1C(=O)N[C@@H](CCC(N)=O)C(=O)NCC(=O)N[C@@H](C)C(=O)N[C@H](C(=O)N[C@@H](CC(C)C)C(=O)N[C@H](C(=O)N[C@@H](CCC(N)=O)C(=O)N[C@@H](CCCNC(=N)N)C(=O)N[C@@H](CCC(=O)O)C(=O)N[C@@H](CCCCN)C(=O)N[C@@H](CC(=O)O)C(=O)N[C@@H](CC(C)C)C(=O)N1CCC[C@H]1C(=O)N[C@@H](CC(N)=O)C(=O)N[C@@H](Cc1ccc(O)cc1)C(=O)N[C@@H](CC(N)=O)C(=O)N[C@@H](Cc1c[nH]c2ccccc12)C(=O)N[C@@H](CC(N)=O)C(=O)N[C@@H](CO)C(=O)N[C@@H](Cc1ccccc1)C(=O)NCC(=O)N[C@@H](CC(C)C)C(=O)N[C@@H](CCCNC(=N)N)C(=O)N[C@@H](Cc1ccccc1)C(N)=O)C(C)C)C(C)C (some centres unmarked) [[^68Ga]KISS1-54, metal not drawn]",radiochemical purity in injection solution,[2],> 99%
same,"radiochemical purity after incubation in human serum, 1 h",[3],98.0%
same,"uptake with KISS1-54 co-incubation, relative to control without blocking",LNCap cells,50%
same,"uptake with KISS1-54 co-incubation, relative to control without blocking",HepG2 cells,46%
same,"uptake with KISS1-54 co-incubation, relative to control without blocking",MCF-7 cells,47%
same,"increased uptake after Decitabine treatment, with KISS1-54 co-incubation","HCT116 cells; DC-treated HCT116, 60 min co-incubation with KISS1-54",could be blocked
same,uptake in Decitabine-pre-incubated HCT116 versus untreated cells,"HCT116 cells; HCT116, 72 h pre-incubation with 5 µM Decitabine",significantly increased
same,"uptake with KISS1-54 co-incubation, relative to control without blocking","HCT116 cells; HCT116, 60 min co-incubation with nonradioactive KISS1-54, 1,000-fold, not significant, p = 0.07",76%
same,"uptake with KISS1-54 co-incubation, relative to control without blocking",HeLa cells,40%
same,"uptake with KISS1-54 co-incubation, relative to control without blocking",SK-BR-3 cells,46%
same,"uptake with KISS1-54 co-incubation, relative to control without blocking",MDA-MB-231 cells,65%
same,tumor uptake,"LNCap tumor xenograft; LNCap tumor, 60 min p.i., i.v., µ-PET, mean ± SD, n = 8",0.9 ± 0.3 % ID/g
same,tumor visualisation in PET,"LNCap tumor xenograft; LNCap xenograft, n = 8, visual inspection",clearly delineated from the surrounding tissue
same,reduction of tumor uptake by co-injection of KISS1-54,"LNCap tumor xenograft; LNCap-bearing mice, nonradioactive KISS1-54 in 100-fold excess",26 ± 5%
same,tumor-to-muscle ratio,"LNCap tumor xenograft; LNCap, maximal tumor uptake/mean organ uptake, 60 min p.i.",2.0 ± 0.3
same,tumor-to-muscle ratio,"[1]; MDA-MB-231, maximal tumor uptake/mean organ uptake, 60 min p.i.",1.4 ± 0.4
same,tumor uptake,"[1]; MDA-MB-231 tumor, 60 min p.i., i.v., µ-PET, mean ± SD, n = 10",0.7 ± 0.3 % ID/g
same,tumor visualisation in PET,"[1]; MDA-MB-231 tumor, n = 10, visual inspection",no significant uptake
same,tissue uptake at 1 h,in vivo; tracer accumulation in brain,~0.2 %ID/g
same,tissue uptake at 1 h,in vivo; tracer accumulation in liver,~0.8 %ID/g
same,tissue uptake at 1 h,in vivo; tracer accumulation in muscle,~0.5 %ID/g
same,clearance,in vivo,rapid renal tracer clearance during the first few minutes
"KISS1-54: KISS1 peptide with 54 amino acids; nonradioactive blocking agent (GTSLSPPPESSGSPQQPGLSAPHSRQIPAPQGAVLVQREKDLPNYNWNSFGLRF; ends and bridges not checked; UniProt Q15726 68-121, looked up)",Ki,[4],1.45 ± 0.1 nM
